The record followed here is PubChem BioAssay AID330 (DTP/NCI, 2004).

“And” between values parts separate entries of the source, which are not always exact repeats. Equal entries are not always repeated. Toxic doses and inconclusive results are not listed.

The experiment concerns P388 leukemia ip, CD2F1 mice, survival T/C. In words: NCI In Vivo Anticancer Drug Screen. Data for tumor model P388 Leukemia (intraperitoneal) in CD2F1 (CDF1) mice. The settings on record: endpoint: median survival time, higher = longer survival. A digest of the protocol:
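Mice carrying the transplanted tumor received test compound or vehicle. Survival was recorded in each group, and the value is the treated-group measurement divided by that of the vehicle-treated control group.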

Setting [1] is: dose: 60.0 mg/kg/injection, schedule: Q01DX005 (ip), vehicle: Klucel (hydroxypropylcellulose) (HPC).
Setting [2] is: dose: 120.0 mg/kg/injection, schedule: Q01DX005 (ip), vehicle: Klucel (hydroxypropylcellulose) (HPC).
Where [3] appears, read: dose: 50.0 mg/kg/injection, schedule: Q01DX005 (ip), vehicle: Klucel (hydroxypropylcellulose) (HPC).
[4] abbreviates: dose: 100.0 mg/kg/injection, schedule: Q01DX005 (ip), vehicle: Klucel (hydroxypropylcellulose) (HPC).
Where [5] appears, read: dose: 200.0 mg/kg/injection, schedule: Q01DX005 (ip), vehicle: Klucel (hydroxypropylcellulose) (HPC).
Where [6] appears, read: dose: 50.0 mg/kg/injection, schedule: Q01DX005 (ip), vehicle: saline with Tween-80.
Setting [7] is: dose: 100.0 mg/kg/injection, schedule: Q01DX009 (ip), vehicle: saline with Tween-80.
Where [8] appears, read: dose: 200.0 mg/kg/injection, schedule: Q01DX009 (ip), vehicle: saline with Tween-80.
Where [9] appears, read: dose: 50.0 mg/kg/injection, schedule: Q01DX009 (ip), vehicle: saline.
Setting [10] is: dose: 100.0 mg/kg/injection, schedule: Q01DX009 (ip), vehicle: saline.
[11] abbreviates: dose: 100.0 mg/kg/injection, schedule: Q01DX005 (ip), vehicle: saline with Tween-80.
The mark [12] stands for this setting: dose: 60.0 mg/kg/injection, schedule: Q01DX005 (ip), vehicle: saline with Tween-80.
The mark [13] stands for this setting: dose: 60.0 mg/kg/injection, schedule: Q01DX005 (ip), vehicle: saline.
The mark [14] stands for this setting: dose: 120.0 mg/kg/injection, schedule: Q01DX005 (ip), vehicle: saline.
Where [15] appears, read: dose: 240.0 mg/kg/injection, schedule: Q01DX005 (ip), vehicle: saline.
Where [16] appears, read: dose: 50.0 mg/kg/injection, schedule: Q01DX009 (ip), vehicle: saline with Tween-80.

In the case of `COc1ccc(NCCOc2ccccc2Br)cc1`, the T/C is, setting by setting: (dose: 100.0 mg/kg/injection, schedule: Q04DX003 (ip), vehicle: other) 90 % of control; (dose: 132.0 mg/kg/injection, schedule: Q01DX009 (ip), vehicle: other) 123 % of control; (dose: 200.0 mg/kg/injection, schedule: Q01DX009 (ip), vehicle: other) 104 % of control; (dose: 200.0 mg/kg/injection, schedule: Q04DX003 (ip), vehicle: other) 90 % of control; (dose: 300.0 mg/kg/injection, schedule: Q01DX009 (ip), vehicle: other) 100 % of control; (dose: 400.0 mg/kg/injection, schedule: Q04DX003 (ip), vehicle: other) 95 % of control.

Turning to `CN(C)C(=O)c1ccc(SC(=S)NCc2ccccc2)cc1`, the T/C is, setting by setting: (dose: 15.0 mg/kg/injection, schedule: Q01DX005 (ip), vehicle: Klucel (hydroxypropylcellulose) (HPC)) 103 % of control; (dose: 30.0 mg/kg/injection, schedule: Q01DX005 (ip), vehicle: Klucel (hydroxypropylcellulose) (HPC)) 103 % of control; under setting [1], 101 % of control and 104 % of control; under setting [2], 115 % of control.

For `Clc1cc(-c2ccccc2)no1`, the T/C runs as follows: (dose: 25.0 mg/kg/injection, schedule: Q04DX003 (ip), vehicle: Klucel (hydroxypropylcellulose) (HPC)) 109 % of control; (dose: 50.0 mg/kg/injection, schedule: Q04DX003 (ip), vehicle: Klucel (hydroxypropylcellulose) (HPC)) 108 % of control; (dose: 100.0 mg/kg/injection, schedule: Q04DX003 (ip), vehicle: Klucel (hydroxypropylcellulose) (HPC)) 99 % of control and 112 % of control.

For the molecule `Cn1cnc([N+](=O)[O-])c1S(=O)(=O)NCN1CCOCC1`, the T/C is 116 % of control (dose: 6.25 mg/kg/injection, schedule: Q01DX009 (ip), vehicle: Klucel (hydroxypropylcellulose) (HPC)) and 119 % of control (dose: 12.5 mg/kg/injection, schedule: Q01DX009 (ip), vehicle: Klucel (hydroxypropylcellulose) (HPC)).

Turning to `CCC(C)n1c(C)nc2ncn(-c3ccccc3)c2c1=O` (stereo not given), the T/C by setting is: under setting [3], 100 % of control; under setting [4], 103 % of control; under setting [5], 105 % of control.

Regarding `CN1OC(CS(=O)(=O)c2ccccc2)(S(=O)(=O)c2ccccc2)CC1c1ccccc1` (stereo not given), the T/C is 103 % of control under setting [3], 101 % of control under setting [4] and 101 % of control under setting [5].

In the case of `CCN(CC)c1ccc2cc(S(=O)(=O)c3ccc(C)cc3)c(=O)oc2c1`, under setting [6], the T/C was 96 % of control.

For `CC1(C)/C(=C/c2ccccc2)C(=O)c2ccccc21`, the T/C by setting is: under setting [7], 90 % of control; under setting [8], 100 % of control; (dose: 400.0 mg/kg/injection, schedule: Q01DX009 (ip), vehicle: saline with Tween-80) 100 % of control.

On to `O=C1CC(c2ccc(Cl)cc2)OC(c2ccc(Cl)cc2)C1` (stereo not given), for which the T/C under setting [9] is 104 % of control; the T/C under setting [10] is 102 % of control; the T/C (dose: 200.0 mg/kg/injection, schedule: Q01DX009 (ip), vehicle: saline) was 98 % of control.

With `O=C(O)c1cc(-c2ccc(Cl)cc2)nc2cc(Cl)ccc12`, the T/C is 98 % of control under setting [6] and 100 % of control under setting [11].

For the molecule `CC(SC(C)C(=O)N/N=C/c1c[nH]c2ccccc12)C(=O)N/N=C\c1c[nH]c2ccccc12` (stereo not given), the T/C is 92 % of control under setting [6]; 93 % of control under setting [11]; 93 % of control (dose: 200.0 mg/kg/injection, schedule: Q01DX005 (ip), vehicle: saline with Tween-80).

As to `CCOC(=O)CNC(=O)OC(C)(C)C`, the T/C by setting is: under setting [12], 103 % of control; (dose: 120.0 mg/kg/injection, schedule: Q01DX005 (ip), vehicle: saline with Tween-80) 100 % of control; (dose: 240.0 mg/kg/injection, schedule: Q01DX005 (ip), vehicle: saline with Tween-80) 108 % of control.

Turning to `C#CCN1c2c(nc(N)[nH]c2=O)NCC1CNc1ccc(C(=O)NC(CCC(=O)O)C(=O)O)cc1` (stereo not given), the T/C is 105 % of control (dose: 50.0 mg/kg/injection, schedule: Q01DX005 (ip), vehicle: alkali diluted with saline); 92 % of control (dose: 100.0 mg/kg/injection, schedule: Q01DX005 (ip), vehicle: alkali diluted with saline); 105 % of control (dose: 200.0 mg/kg/injection, schedule: Q01DX005 (ip), vehicle: alkali diluted with saline).

Take `NNC(=O)C(O)C(O)C(O)C(O)CO` (stereo not given): the T/C runs as follows: (dose: 50.0 mg/kg/injection, schedule: Q01DX005 (ip), vehicle: saline) 92 % of control; (dose: 100.0 mg/kg/injection, schedule: Q01DX005 (ip), vehicle: saline) 100 % of control; (dose: 200.0 mg/kg/injection, schedule: Q01DX005 (ip), vehicle: saline) 100 % of control.

Take `CCOP1(=O)CCCCN1Cc1ccccc1` (stereo not given): the T/C under setting [9] was 100 % of control and the T/C under setting [10] is 103 % of control.

In the case of `CC(C)(C)C1=CC(=O)C(=O)C(C(C)(C)C)=C1`, the T/C runs as follows: (dose: 25.0 mg/kg/injection, schedule: Q01DX009 (ip), vehicle: other) 101 % of control; (dose: 50.0 mg/kg/injection, schedule: Q01DX009 (ip), vehicle: other) 108 % of control; (dose: 100.0 mg/kg/injection, schedule: Q01DX009 (ip), vehicle: other) 108 % of control.

For `CCSC(=S)N=Nc1c(O)n(C)c2ccccc12`, the T/C under setting [9] was 93 % of control and the T/C under setting [10] is 94 % of control.

Take `Cc1ccc(Nc2c3ccccc3nc3c2cnn3-c2ccccc2)cc1`: the T/C under setting [1] is 91 % of control; the T/C under setting [2] is 90 % of control; the T/C (dose: 240.0 mg/kg/injection, schedule: Q01DX005 (ip), vehicle: Klucel (hydroxypropylcellulose) (HPC)) is 87 % of control.

`Nc1nc(N)c2c(Cl)c(CNc3ccc(C(=O)NC(CC(=O)O)CC(=O)O)cc3)ccc2n1`: the T/C runs as follows: (dose: 1.5 mg/kg/injection, schedule: Q01DX005 (ip), vehicle: saline with Tween-80) 155 % of control; (dose: 3.0 mg/kg/injection, schedule: Q01DX005 (ip), vehicle: saline with Tween-80) 174 % of control; (dose: 6.0 mg/kg/injection, schedule: Q01DX005 (ip), vehicle: saline with Tween-80) 202 % of control; (dose: 6.25 mg/kg/injection, schedule: Q01DX005 (ip), vehicle: saline with Tween-80) 235 % of control; (dose: 12.0 mg/kg/injection, schedule: Q01DX005 (ip), vehicle: saline with Tween-80) 275 % of control.

For the molecule `CN1C(=O)C(CCCN=C(N)N)NC1=S` (stereo not given), the T/C reads like this: under setting [13], 98 % of control; under setting [14], 111 % of control; under setting [15], 104 % of control.

Consider `OCC(O)C(Cl)CCl` (stereo not given), for which the T/C is 101 % of control under setting [13], 100 % of control under setting [14] and 86 % of control under setting [15].

Turning to `Cc1ccc(N=C(N=C(NC(=O)c2ccccc2)c2ccccc2)c2ccccc2)cc1`, the T/C by setting is: (dose: 12.5 mg/kg/injection, schedule: Q01DX009 (ip), vehicle: saline with Tween-80) 99 % of control; (dose: 25.0 mg/kg/injection, schedule: Q01DX009 (ip), vehicle: saline with Tween-80) 97 % of control; under setting [16], 89 % of control and 93 % of control (2×); under setting [8], 95 % of control.

Turning to `O=C(Cc1nc(-c2ccc(Cl)cc2)no1)c1ccccc1`, the T/C was 91 % of control under setting [16] and 87 % of control under setting [7].

As to `Cc1cn(Cc2ccc(Cl)cc2Cl)c(C)n1`, the T/C was 100 % of control (dose: 15.0 mg/kg/injection, schedule: Q01DX005 (ip), vehicle: saline with Tween-80); 107 % of control (dose: 30.0 mg/kg/injection, schedule: Q01DX005 (ip), vehicle: saline with Tween-80); 100 % of control and 108 % of control under setting [12].

As for `CN(C)C1c2cc(Cl)ccc2-c2c(Cl)cc(Cl)cc21` (stereo not given), the T/C was 100 % of control and 91 % of control under setting [3]; 96 % of control under setting [4]; 91 % of control and 92 % of control under setting [5].
